Results taken from publication PMC5512541 (Science translational medicine, 2016).
Read-outs that look alike come from different tables or passages of the source.

Experiments:
[1] = mouse interstitial fluid (ISF); endogenous Aβ; ref [8], [9]; cited from earlier work
[2] = human cerebrospinal fluid (CSF); endogenous Aβ; ref [8], [9]; cited from earlier work
amyloid pathology = settings: administration in a mouse model of AD; ref [65]; cited from earlier work
ISF Aβ40 and Aβ42 = assay: In vivo microdialysis of hippocampal ISF Aβ after γ-secretase inhibitor; parameters: species or system mouse; settings: APP/PS1 and APP/PS1; nExt1CKO mice, 3-4 months; LY411575 5 mg/kg intraperitoneally; hippocampal microdialysis samples every 60 min for 6 hr; ELISA

Q: Which results are given for amyloid-β [Aβ]?
A: half-life in the brain [1]: 1 to 2 h; half-life in the brain [2]: ~ 8 hours

Q: Which “effect on amyloid pathology” value (amyloid pathology) does the source give for low-molecular-weight heparin here?
A: Its value is “reduced amyloid pathology”.

Q: With `C[C@H](NC(=O)[C@@H](O)c1cc(F)cc(F)c1)C(=O)N[C@@H]1C(=O)N(C)c2ccccc2-c2ccccc21` [γ-secretase inhibitor, LY411575] as the molecule, how does the “ISF Aβ40 and Aβ42 concentration after treatment” value (ISF Aβ40 and Aβ42) read?
A: The value was “gradually decreased in a time-dependent manner”.
